Measured values taken from ChEMBL document CHEMBL4808252, “Identification of new [1,2,4]triazolo[4,3-a]quinoxalines as potent VEGFR-2 tyrosine kinase inhibitors: Design, synthesis, anticancer evaluation, and in silico studies” (Bioorg Med Chem, 2021).

Key:
[1] = test system: Hepatocyte; test: Cytotoxicity against rat hepatocytes assessed as reduction in cell growth for 4 hrs by MTT assay
[2] = test system: HepG2; test: Antiproliferative activity against human HepG2 cells assessed as cell growth inhibition incubated for 4 hrs by MTT assay; conditions: HepG2, 4 h
[3] = test system: MCF7; test: Antiproliferative activity against human MCF7 cells assessed as cell growth inhibition incubated for 4 hrs by MTT assay; conditions: MCF7, 4 h
[4] = test system: HepG2; test: Induction of apoptosis in human HepG2 cells assessed as necrotic cells at 5.4 uM incubated for 24 hrs by annexinV-FITC/propidium iodide staining based flow cytometry (reference value: 0.07 +/- 0.01 %); type: functional
[5] = test system: HepG2; test: Cell cycle arrest in human HepG2 cells assessed as accumulation at sub G1 phase at 5.4 uM incubated for 24 hrs by DNA flow cytometric assay (reference value: 1.53 +/- 0.21%); type: functional
[6] = test system: HepG2; test: Cell cycle arrest in human HepG2 cells assessed as accumulation at G1 phase at 5.4 uM incubated for 24 hrs by DNA flow cytometric assay (reference value: 66.40 +/- 3.21%); type: functional
[7] = test system: HepG2; test: Induction of apoptosis in human HepG2 cells assessed as late apoptotic cells at 5.4 uM incubated for 24 hrs by annexinV-FITC/propidium iodide staining based flow cytometry (reference value: 0.13 +/- 0.01%); type: functional
[8] = test system: HepG2; test: Cell cycle arrest in human HepG2 cells assessed as accumulation at G2/M phase at 5.4 uM incubated for 24 hrs by DNA flow cytometric assay (reference value: 12.53 +/- 1.48%); type: functional
[9] = test system: HepG2; test: Cell cycle arrest in human HepG2 cells assessed as accumulation at S phase at 5.4 uM incubated for 24 hrs by DNA flow cytometric assay (reference value: 19.52 +/- 1.55%); type: functional
[10] = test system: HepG2; test: Induction of apoptosis in human HepG2 cells assessed as viable cells at 5.4 uM incubated for 24 hrs by annexinV-FITC/propidium iodide staining based flow cytometry (reference value: 92.54 +/- 1.64 %); type: functional; conditions: read-out: Activity
[11] = test system: HepG2; test: Induction of apoptosis in human HepG2 cells assessed as early apoptotic cells at 5.4 uM incubated for 24 hrs by annexinV-FITC/propidium iodide staining based flow cytometry (reference value: 7.22 +/- 0.64 %); type: functional

SMILES | IC50 [2] | IC50 [3] | other results
CNC(=O)c1cc(Oc2ccc(NC(=O)Nc3ccc(Cl)c(C(F)(F)F)c3)cc2)ccn1 [SORAFENIB] | 2.17 µM |  | IC50 [1]: 16.6 µM
O=C(Cn1c(=O)c2nncn2c2ccccc21)Nc1ccc(C(=O)Nc2ccc(Cl)cn2)cc1 | 47.6 µM | 71.4 µM | 
Cc1cccc(C)c1NC(=O)c1ccc(NC(=O)CSc2nc3ccccc3n3cnnc23)cc1 | 54.2 µM | 68.7 µM | 
O=C(CSc1nc2ccccc2n2cnnc12)Nc1ccc(C(=O)NNC(=O)c2ccc([N+](=O)[O-])cc2)cc1 | 52.4 µM | 72.7 µM | 
Cc1cccc(NC(=O)c2ccc(NC(=O)Cn3c(=O)c4nncn4c4ccccc43)cc2)c1 | 6.5 µM | 10.3 µM | 
O=C(CSc1nc2ccccc2n2cnnc12)Nc1ccc(C(=O)NCc2ccccc2)cc1 | 43.5 µM | 52.7 µM | 
O=C(CSc1nc2ccccc2n2cnnc12)Nc1ccc(C(=O)NNC(=O)c2ccccc2)cc1 | 41.9 µM | 57.1 µM | 
O=C(Cn1c(=O)c2nncn2c2ccccc21)Nc1ccc(C(=O)Nc2ccc([N+](=O)[O-])cc2)cc1 | 42.5 µM | 51.6 µM | 
O=C(CSc1nc2ccccc2n2cnnc12)Nc1ccc(C(=O)Nc2ccccc2)cc1 | 5.4 µM | 8.2 µM | Activity [4]: 0.14%; Activity [5]: 1.32%; Activity [6]: 42.55%; IC50 [1]: 31.3 µM; Activity [7]: 0.22%; Activity [8]: 25.99%; Activity [9]: 30.12%; viability at 5.4 µM [10]: 69.4%; Activity [11]: 30.27%
O=C(Cn1c(=O)c2nncn2c2ccccc21)Nc1ccc(C(=O)NCc2ccccc2)cc1 | 7.9 µM | 9.7 µM | 
O=C(Cn1c(=O)c2nncn2c2ccccc21)Nc1ccc(C(=O)NNC(=O)c2ccccc2)cc1 | 15.4 µM | 23.7 µM | 
O=C(CSc1nc2ccccc2n2cnnc12)Nc1ccc(C(=O)NC2CCCCC2)cc1 | 64.8 µM | 69.2 µM | 
O=C(CSc1nc2ccccc2n2cnnc12)Nc1ccc(C(=O)Nc2ccc([N+](=O)[O-])cc2)cc1 | 42.7 µM | 61.3 µM | 
O=C(Cn1c(=O)c2nncn2c2ccccc21)Nc1ccc(C(=O)NC2CCCCC2)cc1 | 23.8 µM | 41.2 µM | 
O=C(Cn1c(=O)c2nncn2c2ccccc21)Nc1ccc(C(=O)NNC(=O)c2ccc([N+](=O)[O-])cc2)cc1 | 19.7 µM | 31.1 µM | 
Cc1cccc(C)c1NC(=O)c1ccc(NC(=O)Cn2c(=O)c3nncn3c3ccccc32)cc1 | 17.5 µM | 21.5 µM | 
O=C(CSc1nc2ccccc2n2cnnc12)Nc1ccc(C(=O)Nc2ccc(Cl)cn2)cc1 | 8.3 µM | 12.2 µM | 
O=C(CSc1nc2ccccc2n2cnnc12)Nc1ccc(C(=O)Nc2ccccn2)cc1 | 51.5 µM | 54.7 µM | 
O=C(CSc1nc2ccccc2n2cnnc12)Nc1ccc(C(=O)NNc2ccccc2)cc1 | 37.8 µM | 59.3 µM | 
Cc1ccccc1NC(=O)c1ccc(NC(=O)CSc2nc3ccccc3n3cnnc23)cc1 | 31.8 µM | 38.2 µM | 
Cc1cccc(NC(=O)c2ccc(NC(=O)CSc3nc4ccccc4n4cnnc34)cc2)c1 | 23.6 µM | 46.7 µM | 
O=C(Cn1c(=O)c2nncn2c2ccccc21)Nc1ccc(C(=O)Nc2ccccc2)cc1 | 57.5 µM | 68.3 µM | 
